Data set [1] concerns wildtype and FGF14 deficient mice. Kind of data set: PTZ-induced seizure: latency to onset and time to death. The data set is classed as in vivo, mouse. Particulars: for time to death (mean duration): FGF14 (−/−) mice. As to the method:
Time to onset of tonic-clonic seizure was recorded. In the first experiment (FIG. 9), the mean age was 82 days and the sex ratio was 50% male/female. In the second experiment, the mean age was 354 days and all animals were female.

For data set [2], the system named is wildtype and Fgf14^N-βGal/N-βGal mice. Kind of data set: Locomotor activity response to stimulant drugs and dopamine receptor agonists. It is filed as in vivo, mouse. How it is done: Locomotor activity. For the locomotor activity experiments, all mice were acclimated to the activity cages (28 cm long×17 cm wide×12.5 cm high) for one hour on two consecutive days. […] Mice were tested every other day and the order of drug treatment was counterbalanced across days within genotype groups. Locomotor activity was recorded every five minutes by two beams of red light placed at 10 and 19 cm along the length of the activity cage.
Statistical Analyses. The behavioral data were analyzed using analysis of variance (ANOVA) models typically containing one between-subjects variable (Genotype) and one within-subjects variable (e.g., Trials or Test Sessions). Subsequent one-way ANOVAs were used to evaluate main effects. Data from the experiments concerning drug effects on locomotor activity were analyzed by using a […] analysis of variance (ANOVA) with one between-subjects variable (Drug) being added to the above model. […] Alpha was set at p<0.05 for all analyses.

In data set [3] the test system is extracellular dopamine. Particulars: cited from earlier work.
In data set [4] the test system is Dopamine D1 receptor deficient mice. Particulars: cited from earlier work.
The test system of data set [5] is wildtype and Fgf14^N-βGal/N-βGal mice. The data set can be described thus: Cocaine-induced seizure activity with EEG recording. The data set is classed as in vivo, mouse. As to the method: Surgical implantation of skull screw electrodes was performed with the mice positioned in a stereotaxic frame under halothane anesthesia. Using sterile technique, the scalp was incised at the midline and the periosteum was scraped free from the skull. Three burr holes were made with a high speed drill for placement of epidural screw electrodes. Two active electrodes were placed over the right and left frontal cortex approximately 1 mm posterior to the bregma. A reference electrode was implanted in the region over the frontal sinus. The electrodes and lead wires were stabilized to the skull with dental cement. The mice were allowed a three-day recovery period before recording. Reference EEG recordings from the right and left frontal regions were performed using a Grass P5 Series AC amplifier with high and low frequency filter settings at 100 and 1 Hz, respectively. The outputs of the amplifiers were digitized and stored using an analog-to-digital converter and Axoscope software.

Setting [6] is: Fgf14^N-βGal/N-βGal mice, 40 mg/kg.

Read-outs that look alike come from different tables or passages of the source.

`C1CCc2nnnn2CC1` [PTZ, pentylenetetrazol]: the “time to death (mean duration)” value in data set [1] (Experiment 1, 100 mg/kg IP, average age 82 days) is “about 4200 seconds”; in data set [1] (Experiment 2, 75 mg/kg IP, average age 354 days) it was about 5700 s. Further, the “time to death after seizure onset” value in data set [1] (wild type mice) was in the range of 15 to 20 s.
As for `Oc1cc2c(cc1O)C(c1ccccc1)CNCC2` (stereo not shown) [SKF38393], in data set [2] (Fgf14^N-βGal/N-βGal mice compared to wildtype), the “reduction in the locomotor activity induced by the D1R agonist” value amounted to 30%.
Consider `CC(N)Cc1ccccc1` (stereo not shown) [amphetamine], for which, in data set [2] (Fgf14^N-βGal/N-βGal mice, 2 and 4 mg/kg subcutaneous), the “hyperactivity response relative to wildtype littermates” value is reported as “significantly lower”. In addition, the “elevation of DA efflux above baseline” value in data set [3] (2 mg/kg) was 350%; in data set [3] (4 mg/kg), 750%. Also, the locomotor response result in data set [4] (2 mg/kg) is recorded as “non-responsive”; in data set [4] (5 mg/kg), “decreased response”.
For the compound `COC(=O)[C@H]1[C@@H](OC(=O)c2ccccc2)C[C@@H]2CC[C@H]1N2C` [cocaine], the EEG recording result in data set [5] (setting [6]) was “epileptiform activity”. Moreover, the “induction of seizures (behaviour)” value in data set [5] (setting [6]) is listed as “brief tonic movements”. The induction of seizures result in data set [5] (both wildtype and FGF14 deficient mice, 80 mg/kg) is recorded as “tonic-clonic seizures”; in data set [5] (wildtype mice, 40 mg/kg), “did not induce seizures”.

These data come from patent US20030037354A1, “Animal model with disrupted Fgf14 gene” (priority 2001, published 2003).
